From the supplement of paper PMC12137928
Where a name gives a salt, the structure may show the parent alone.

Columns and labels:
HCT116 [1] = conditions: 72 h
How it was run: (§1)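 HCT116 cells were plated at 250 per well in 1536-well plates and allowed 5 h to attach. CellTiter-Glo luminescence was normalized to vehicle as 0% and positive control as -100%, followed by pattern correction. Four-parameter Hill fits provided IC50 and maximal efficacy.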

HCT116 [2] = experiment: efficacy (maximum % inhibition of viability vs DMSO); higher = more cytotoxic; conditions: 72 h
How it was run: as §1

SMILES	IC50 cell viability (HCT116 [1]; ICRF193 0 nM)	IC50 cell viability (HCT116 [1]; ICRF193 200 nM)	efficacy (HCT116 [2]; ICRF193 0 nM)	efficacy (HCT116 [2]; ICRF193 200 nM)
Cc1cc(C2CCCCC2)n(O)c(=O)c1 [Ciclopirox]	11.6 µM	13 µM	107%	98.9%
COCCOC(=O)C1=C(C)NC(C)=C(C(=O)OC/C=C/c2ccccc2)C1c1cccc([N+](=O)[O-])c1 (configuration not stated) [Cilnidipine]	18.3 µM	20.6 µM	82.3%	103%
O=C1CCc2cc(OCCCCc3nnnn3C3CCCCC3)ccc2N1 [Cilostazol]	> 45.8 µM	23.1 µM		46%
C[C@@H](NCCCc1cccc(C(F)(F)F)c1)c1cccc2ccccc12 [Cinacalcet hydrochloride]	20.6 µM	20.6 µM	87.6%	94.6%
Nc1nc(Cl)nc2c1ncn2[C@H]1C[C@H](O)[C@@H](CO)O1 [Cladribine]	1.3 µM	0.651 µM	56.1%	66.1%
CN1CCC[C@@H]1CCO[C@](C)(c1ccccc1)c1ccc(Cl)cc1 [Clemastine fumarate]	18.3 µM	23.1 µM	88%	114%
Oc1c(I)cc(Cl)c2cccnc12 [Clioquinol]	29.1 µM	29.1 µM	99.1%	98.1%
CCCC(=O)O[C@]1(C(=O)CCl)[C@H](C)C[C@@H]2[C@@H]3CCC4=CC(=O)C=C[C@]4(C)[C@]3(F)C(=O)C[C@@]21C [Clobetasone butyrate]	20.6 µM	14.6 µM	50.4%	40.9%
NC(=O)C1(N2CCCCC2)CCN(CCCN2c3ccccc3CCc3ccc(Cl)cc32)CC1 [Clocapramine]	23.1 µM	18.3 µM	117%	105%
Nc1nc(Cl)nc2c1ncn2[C@@H]1O[C@H](CO)[C@@H](O)[C@@H]1F [Clofarabine]	0.146 µM	0.231 µM	45.9%	65.2%
O=C(Nc1ccc(Cl)cc1)Nc1ccc(Cl)c(C(F)(F)F)c1 [Cloflucarban]	5.8 µM	5.8 µM	98.6%	98.1%
CCN(CC)CCOc1ccc(C(=C(Cl)c2ccccc2)c2ccccc2)cc1 [Clomifene citrate]	18.3 µM	20.6 µM	110%	120%
CN(C)CCCN1c2ccccc2CCc2ccc(Cl)cc21 [Clomipramine hydrochloride]	18.3 µM	20.6 µM	74.9%	90.5%
Clc1cccc(Cl)c1NC1=NCCN1 [Clonidine]	> 45.8 µM	4.11 µM		68.5%
COC(=O)[C@H](c1ccccc1Cl)N1CCc2sccc2C1 [Clopidogrel bisulfate]	18.3 µM	23.1 µM	67.2%	76.8%
Cc1cc(C(C#N)c2ccc(Cl)cc2)c(Cl)cc1NC(=O)c1cc(I)cc(I)c1O (configuration not stated) [Closantel]	9.2 µM	10.3 µM	70.3%	77.1%
Clc1ccccc1C(c1ccccc1)(c1ccccc1)n1ccnc1 [Clotrimazole]	18.3 µM	16.4 µM	102%	94.7%
CC(C)c1nc(CN(C)C(=O)N[C@@H](CCN2CCOCC2)C(=O)N[C@H](CC[C@H](Cc2ccccc2)NC(=O)OCc2cncs2)Cc2ccccc2)cs1 [Cobicistat]	14.6 µM	> 45.8 µM	40.1%	
O=C(c1ccc(F)c(F)c1Nc1ccc(I)cc1F)N1CC(O)([C@@H]2CCCCN2)C1 [Cobimetinib]	18.3 µM	9.2 µM	55.7%	75.9%
COc1cc2c(c(OC)c1OC)-c1ccc(OC)c(=O)cc1[C@@H](NC(C)=O)CC2 [Colchicine]	0.0326 µM	0.0326 µM	74%	69.5%
Cc1nc2c([nH]1)-c1ccccc1N(C(=O)c1ccc(NC(=O)c3ccccc3-c3ccccc3)cc1)CC2 [Conivaptan hydrochloride]	> 45.8 µM	29.1 µM		60%
COc1c(OCCCN2CCOCC2)ccc2c1N=C(NC(=O)c1cnc(N)nc1)N1CCN=C21 [Copanlisib]	0.944 µM	0.473 µM	59.1%	65.9%
CN(C)CCC=C1c2ccccc2C=Cc2ccccc21 [Cyclobenzaprine hydrochloride]	> 45.8 µM	20.6 µM		52.3%
C[C@H]1O[C@@H](O[C@H]2[C@@H](O)C[C@H](O[C@H]3[C@@H](O)C[C@H](O[C@H]4CC[C@@]5(C)[C@H](CC[C@@H]6[C@@H]5CC[C@]5(C)[C@@H](C7=CC(=O)OC7)CC[C@]65O)C4)O[C@@H]3C)O[C@@H]2C)C[C@H](O)[C@@H]1O [DIGITOXIN]	0.0651 µM	> 45.8 µM	73.1%	
CO[C@H]1C[C@H](O[C@H]2[C@H](C)O[C@@H](O[C@@H]3/C(C)=C/C[C@@H]4C[C@@H](C[C@]5(C=C[C@H](C)[C@@H](C6CCCCC6)O5)O4)OC(=O)[C@@H]4C=C(C)[C@@H](O)[C@H]5OC/C(=C\C=C\[C@@H]3C)[C@]54O)C[C@@H]2OC)O[C@@H](C)[C@@H]1O [DORAMECTIN]	13 µM	7.3 µM	112%	106%
CC(C)(C)c1nc(-c2cccc(NS(=O)(=O)c3c(F)cccc3F)c2F)c(-c2ccnc(N)n2)s1 [Dabrafenib]	23.1 µM	9.2 µM	46.2%	81.6%
CN(C)/N=N/c1[nH]cnc1C(N)=O [Dacarbazine]	7.3 µM	16.4 µM	66.6%	91.9%

SMILES	IC50 cell viability (HCT116 [1]; ICRF193 0 nM)	IC50 cell viability (HCT116 [1]; ICRF193 200 nM)	efficacy (HCT116 [2]; ICRF193 0 nM)	efficacy (HCT116 [2]; ICRF193 200 nM)
COC(=O)N[C@H](C(=O)N1CCC[C@H]1c1ncc(-c2ccc(-c3ccc(-c4cnc([C@@H]5CCCN5C(=O)[C@@H](NC(=O)OC)C(C)C)[nH]4)cc3)cc2)[nH]1)C(C)C [Daclatasvir dihydrochloride]	29.1 µM	29.1 µM	103%	101%
C#C[C@]1(O)CC[C@H]2[C@@H]3CCC4=Cc5oncc5C[C@]4(C)[C@H]3CC[C@@]21C [Danazol]	> 45.8 µM	20.6 µM		47.9%
CN(C)[C@@H](CCOc1cccc2ccccc12)c1ccccc1 [Dapoxetine]	29.1 µM	23.1 µM	71.4%	70.9%
Cc1nc(Nc2ncc(C(=O)Nc3c(C)cccc3Cl)s2)cc(N2CCN(CCO)CC2)n1 [Dasatinib]	29.1 µM	23.1 µM	74.6%	105%
COc1cccc2c1C(=O)c1c(O)c3c(c(O)c1C2=O)C[C@@](O)(C(C)=O)C[C@@H]3O[C@H]1C[C@H](N)[C@H](O)[C@H](C)O1 [Daunorubicin]	0.461 µM	0.0517 µM	102%	83.8%
O=C(O)c1ccc(-n2nc(-c3ccccc3O)nc2-c2ccccc2O)cc1 [Deferasirox]	18.3 µM	29.1 µM	99.7%	109%
CC(=O)N(O)CCCCCNC(=O)CCC(=O)N(O)CCCCCNC(=O)CCC(=O)N(O)CCCCCN [Deferoxamine mesylate]	29.1 µM	29.1 µM	99.1%	105%
CN(C)[C@@H]1C(O)=C(C(N)=O)C(=O)[C@@]2(O)C(O)=C3C(=O)c4c(O)ccc(Cl)c4[C@@H](O)[C@H]3C[C@@H]12 [Demeclocycline hydrochloride]	> 45.8 µM	16.4 µM		40%
Cc1cc(N)c2ccccc2[n+]1CCCCCCCCCC[n+]1c(C)cc(N)c2ccccc21 [Dequalinium dichloride]	> 45.8 µM	2.98 µM		55.3%
COC(=O)[C@H]1[C@H]2C[C@@H]3c4[nH]c5ccccc5c4CCN3C[C@H]2C[C@@H](OC(=O)c2cc(OC)c(OC)c(OC)c2)[C@@H]1OC [Deserpidine]	29.1 µM	25.9 µM	59.1%	48.2%
CNCCCN1c2ccccc2CCc2ccccc21 [Desipramine hydrochloride]	> 45.8 µM	18.3 µM		47.5%
C[C@H]1O[C@@H](O[C@H]2CC[C@@]3(C)[C@H](CC[C@@H]4[C@@H]3C[C@@H](O)[C@]3(C)[C@@H](C5=CC(=O)OC5)CC[C@]43O)C2)C[C@H](O)[C@@H]1O[C@H]1C[C@H](O)[C@H](O[C@H]2C[C@H](O)[C@H](O[C@@H]3O[C@H](CO)[C@@H](O)[C@H](O)[C@H]3O)[C@@H](C)O2)[C@@H](C)O1 [Deslanoside]	0.231 µM	0.231 µM	85.6%	78.1%
N=C(N)c1ccc(OCCCOc2ccc(C(=N)N)cc2Br)c(Br)c1 [Dibromopropamidine dihydrochloride]	> 45.8 µM	18.3 µM		51.6%
Oc1ccc(Cl)cc1Cc1cc(Cl)ccc1O [Dichlorophen]	10.3 µM	8.2 µM	106%	99.9%
N#CC(c1ccc(Cl)cc1)c1c(Cl)cc(-n2ncc(=O)[nH]c2=O)cc1Cl (configuration not stated) [Diclazuril]	20.6 µM	20.6 µM	46.5%	56.7%
C/C=C(/C(=C/C)c1ccc(O)cc1)c1ccc(O)cc1 [Dienestrol]	29.1 µM	> 45.8 µM	74.2%	
CC/C(=C(/CC)c1ccc(O)cc1)c1ccc(O)cc1 [Diethylstilbestrol]	18.3 µM	23.1 µM	52.4%	47.5%
CC(C(O)c1ccccc1)N(C)CCOC(c1ccccc1)c1ccccc1 (configuration not stated) [Difeterol]	29.1 µM	23.1 µM	83%	85.3%
O=c1c(C2CC(c3ccc(-c4ccc(Br)cc4)cc3)Cc3ccccc32)c(O)sc2ccccc12 (configuration not stated) [Difethialone]	23.1 µM	18.3 µM	46.7%	68.3%
CC(=O)O[C@H]1C[C@H](O[C@H]2[C@@H](O)C[C@H](O[C@H]3[C@@H](O)C[C@H](O[C@H]4CC[C@@]5(C)[C@H](CC[C@@H]6[C@@H]5CC[C@]5(C)[C@@H](C7=CC(=O)OC7)CC[C@]65O)C4)O[C@@H]3C)O[C@@H]2C)O[C@H](C)[C@H]1O [Digitoxin 3'''-Acetate]	0.231 µM	0.116 µM	75%	87.8%
C[C@H]1O[C@@H](O[C@H]2[C@@H](O)C[C@H](O[C@H]3[C@@H](O)C[C@H](O[C@H]4CC[C@@]5(C)[C@H](CC[C@@H]6[C@@H]5C[C@@H](O)[C@]5(C)[C@@H](C7=CC(=O)OC7)CC[C@]65O)C4)O[C@@H]3C)O[C@@H]2C)C[C@H](O)[C@@H]1O [Digoxin]	0.183 µM	0.146 µM	76.2%	83.8%
COc1cc(C(=O)OCCCN2CCCN(CCCOC(=O)c3cc(OC)c(OC)c(OC)c3)CC2)cc(OC)c1OC [Dilazep]	> 45.8 µM	29.1 µM		51.1%
O=c1c(-c2ccccc2)c1-c1ccccc1 [Diphenylcyclopropenone]	29.1 µM	> 45.8 µM	100%	
[O-][n+]1ccccc1SSc1cccc[n+]1[O-] [Dipyrithione]	1.42 µM	1.27 µM	83.9%	74.7%
CCN1\C(=C/C=C/C=C/c2sc3ccccc3[n+]2CC)Sc2ccccc21 [Dithiazanine chloride]	23.1 µM	20.6 µM	96.7%	99%
CC(CCc1ccc(O)cc1)NCCc1ccc(O)c(O)c1 (configuration not stated) [Dobutamine]	> 45.8 µM	23.1 µM		83.3%
